# ChEMBL document CHEMBL3763052, “Novel N-acyl-carbazole derivatives as 5-HT7R antagonists” (Eur J Med Chem, 2016)
# Legend:
# [1] = Mean residential time in Sprague-Dawley rat at 10 mg/kg, iv by LC-MS/MS analysis; format: ADME, organism-based; details: in vivo
# [2] = molecular target: T1, 5-hydroxytryptamine receptor 7 (Homo sapiens, UniProt P34969); experiment: Displacement of [3H]LSD from 5-HT7 receptor (unknown origin) expressed in CHO-K1 cells by liquid scintillation counting method; format: cell-based
# [3] = molecular target: T1, 5-hydroxytryptamine receptor 7; experiment: Binding affinity to recombinant 5-HT7 receptor (unknown origin) after 1.5 hrs by radioligand displacement assay
# [4] = molecular target: T2, 5-hydroxytryptamine receptor 1A (Homo sapiens, UniProt P08908); experiment: Binding affinity to recombinant 5-HT1A receptor (unknown origin) after 1.5 hrs by radioligand displacement assay
# T2 sequence (P08908 whole entry): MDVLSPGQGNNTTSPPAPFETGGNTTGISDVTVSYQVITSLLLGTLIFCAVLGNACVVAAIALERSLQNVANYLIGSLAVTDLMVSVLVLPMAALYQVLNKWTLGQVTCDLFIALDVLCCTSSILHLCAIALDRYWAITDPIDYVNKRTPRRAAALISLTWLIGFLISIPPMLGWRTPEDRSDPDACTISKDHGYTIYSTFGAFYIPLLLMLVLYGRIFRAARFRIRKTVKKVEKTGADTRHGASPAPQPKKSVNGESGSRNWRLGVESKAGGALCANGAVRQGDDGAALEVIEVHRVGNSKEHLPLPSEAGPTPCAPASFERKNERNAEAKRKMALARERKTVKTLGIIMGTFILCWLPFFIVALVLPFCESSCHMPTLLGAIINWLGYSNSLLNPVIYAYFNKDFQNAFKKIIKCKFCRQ
# [5] = molecular target: 5-hydroxytryptamine receptor 1B (Homo sapiens, UniProt P28222); experiment: Binding affinity to recombinant 5-HT1B receptor (unknown origin) after 1.5 hrs by radioligand displacement assay
# [6] = molecular target: 5-hydroxytryptamine receptor 1D (Homo sapiens, UniProt P28221); experiment: Binding affinity to recombinant 5-HT1D receptor (unknown origin) after 1.5 hrs by radioligand displacement assay
# [7] = molecular target: 5-hydroxytryptamine receptor 2A (Homo sapiens, UniProt P28223); experiment: Binding affinity to recombinant 5-HT2A receptor (unknown origin) after 1.5 hrs by radioligand displacement assay
# [8] = molecular target: 5-hydroxytryptamine receptor 2B (Homo sapiens, UniProt P41595); experiment: Binding affinity to recombinant 5-HT2B receptor (unknown origin) after 1.5 hrs by radioligand displacement assay
# [9] = molecular target: T3, 5-hydroxytryptamine receptor 2C (Homo sapiens, UniProt P28335); experiment: Binding affinity to recombinant 5-HT2C receptor (unknown origin) after 1.5 hrs by radioligand displacement assay
# T3 sequence (P28335 whole entry): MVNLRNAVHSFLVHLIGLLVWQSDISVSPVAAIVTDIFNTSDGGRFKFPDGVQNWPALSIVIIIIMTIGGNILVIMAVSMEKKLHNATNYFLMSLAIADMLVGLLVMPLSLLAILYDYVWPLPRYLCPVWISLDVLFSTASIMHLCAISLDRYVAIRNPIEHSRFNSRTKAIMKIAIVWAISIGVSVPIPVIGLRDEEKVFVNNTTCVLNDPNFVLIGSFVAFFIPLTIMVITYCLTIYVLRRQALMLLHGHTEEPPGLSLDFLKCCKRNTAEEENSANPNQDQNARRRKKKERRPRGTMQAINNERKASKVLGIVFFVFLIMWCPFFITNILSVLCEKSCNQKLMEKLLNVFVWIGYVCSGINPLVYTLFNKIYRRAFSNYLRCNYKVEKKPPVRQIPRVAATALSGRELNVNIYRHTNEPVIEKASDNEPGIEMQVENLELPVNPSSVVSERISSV
# [10] = molecular target: T4, 5-hydroxytryptamine receptor 3A (Homo sapiens) (UniProt P46098); experiment: Binding affinity to recombinant 5-HT3 receptor (unknown origin) at 10 uM after 1.5 hrs by radioligand displacement assay
# T4 sequence (whole entry): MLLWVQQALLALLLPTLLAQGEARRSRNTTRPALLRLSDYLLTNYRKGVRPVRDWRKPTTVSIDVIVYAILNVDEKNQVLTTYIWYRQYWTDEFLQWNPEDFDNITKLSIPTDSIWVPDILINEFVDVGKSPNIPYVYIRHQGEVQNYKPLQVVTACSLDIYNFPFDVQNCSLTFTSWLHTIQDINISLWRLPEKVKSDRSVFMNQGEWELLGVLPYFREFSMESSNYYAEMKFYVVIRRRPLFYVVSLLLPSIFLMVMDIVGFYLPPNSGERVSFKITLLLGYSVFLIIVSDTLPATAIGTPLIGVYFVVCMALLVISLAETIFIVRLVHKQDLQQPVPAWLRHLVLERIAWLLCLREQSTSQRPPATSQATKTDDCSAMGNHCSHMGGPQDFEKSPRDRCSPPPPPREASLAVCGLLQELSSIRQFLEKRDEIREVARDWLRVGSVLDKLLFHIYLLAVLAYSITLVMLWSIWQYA
# [11] = molecular target: 5-hydroxytryptamine receptor 5A (Homo sapiens, UniProt P47898); experiment: Binding affinity to recombinant 5-HT5 receptor (unknown origin) at 10 uM after 1.5 hrs by radioligand displacement assay
# [12] = molecular target: 5-hydroxytryptamine receptor 6 (Homo sapiens, UniProt P50406); experiment: Binding affinity to recombinant 5-HT6 receptor (unknown origin) at 10 uM after 1.5 hrs by radioligand displacement assay
# [13] = molecular target: T1, 5-hydroxytryptamine receptor 7; experiment: Antagonist activity at human 5-HT7 receptor expressed in HEK293 cells assessed as inhibition of 5-HT-induced cAMP production at 10 uM pretreated for 10 mins followed by stimulation with 5-HT for 30 mins by fluorescence analysis; format: functional, cell-based
# [14] = molecular target: T1, 5-hydroxytryptamine receptor 7; experiment: Agonist activity at human 5-HT7 receptor expressed in HEK293 cells assessed as increase in cAMP level at 12.5 uM by fluorescence analysis relative to 5-CT; format: functional, cell-based
# [15] = Metabolic stability in human liver microsomes assessed as compound remaining at 1 uM after 30 mins by LC-MS/MS in presence of NADPH; format: ADME; details: read-out: Stability
# [16] = AUC (0 to infinity) in Sprague-Dawley rat at 10 mg/kg, iv by LC-MS/MS analysis; format: ADME, organism-based; design: dose 10 mg/kg, route intravenous, time infinity; details: in vivo
# [17] = AUC (0 to infinity) in Sprague-Dawley rat at 10 mg/kg, po by LC-MS/MS analysis; format: ADME, organism-based; design: dose 10 mg/kg, route oral, time infinity; details: in vivo
# [18] = AUC (0 to last) in Sprague-Dawley rat at 10 mg/kg, iv by LC-MS/MS analysis; format: ADME, organism-based; design: dose 10 mg/kg, time 0 - last, route intravenous; details: in vivo
# [19] = AUC (0 to last) in Sprague-Dawley rat at 10 mg/kg, po by LC-MS/MS analysis; format: ADME, organism-based; design: dose 10 mg/kg, time 0 - last, route oral; details: in vivo
# [20] = Terminal half life in Sprague-Dawley rat at 10 mg/kg, iv by LC-MS/MS analysis; format: ADME, organism-based; details: in vivo, read-out: beta t1/2
# [21] = Terminal half life in Sprague-Dawley rat at 10 mg/kg, po by LC-MS/MS analysis; format: ADME, organism-based; details: in vivo, read-out: beta t1/2
# [22] = Cmax in Sprague-Dawley rat at 10 mg/kg, po by LC-MS/MS analysis; format: ADME, organism-based; design: dose 10 mg/kg, route oral; details: in vivo
# [23] = Tmax in Sprague-Dawley rat at 10 mg/kg, po by LC-MS/MS analysis; format: ADME, organism-based; details: in vivo
# [24] = Clearance in Sprague-Dawley rat at 10 mg/kg, iv by LC-MS/MS analysis; format: ADME, organism-based; details: in vivo
# [25] = Volume of distribution at steady state in Sprague-Dawley rat at 10 mg/kg, iv by LC-MS/MS analysis; format: ADME, organism-based; details: in vivo, read-out: Vdss
# [26] = Plasma concentration in Sprague-Dawley rat at 10 mg/kg, iv after 2 hrs by LC-MS/MS analysis; format: ADME, organism-based
# [27] = Plasma concentration in Sprague-Dawley rat at 10 mg/kg, po after 2 hrs by LC-MS/MS analysis; format: ADME, organism-based
# [28] = Drug uptake in Sprague-Dawley rat brain at 10 mg/kg, iv after 2 hrs by LC-MS/MS analysis; format: ADME, organism-based; details: read-out: Drug uptake
# [29] = Drug uptake in Sprague-Dawley rat brain at 10 mg/kg, po after 2 hrs by LC-MS/MS analysis; format: ADME, organism-based; details: read-out: Drug uptake
# [30] = test system: Mus musculus; experiment: Antidepressant activity in ICR mouse assessed as immobility time at 30 mg/kg, iv administered 30 mins before testing by forced swim test (reference value: 159.1 sec); format: functional
# [31] = Ratio of drug uptake in brain to plasma of Sprague-Dawley rat at 10 mg/kg, iv after 2 hrs by LC-MS/MS analysis; format: ADME, organism-based; details: read-out: BPR
# [32] = Oral bioavailability in Sprague-Dawley rat at 10 mg/kg by LC-MS/MS analysis; format: ADME, organism-based; details: in vivo
# [33] = Ratio of drug uptake in brain to plasma of Sprague-Dawley rat at 10 mg/kg, po after 2 hrs by LC-MS/MS analysis; format: ADME, organism-based; details: read-out: BPR
# T1 sequence (P34969 whole entry): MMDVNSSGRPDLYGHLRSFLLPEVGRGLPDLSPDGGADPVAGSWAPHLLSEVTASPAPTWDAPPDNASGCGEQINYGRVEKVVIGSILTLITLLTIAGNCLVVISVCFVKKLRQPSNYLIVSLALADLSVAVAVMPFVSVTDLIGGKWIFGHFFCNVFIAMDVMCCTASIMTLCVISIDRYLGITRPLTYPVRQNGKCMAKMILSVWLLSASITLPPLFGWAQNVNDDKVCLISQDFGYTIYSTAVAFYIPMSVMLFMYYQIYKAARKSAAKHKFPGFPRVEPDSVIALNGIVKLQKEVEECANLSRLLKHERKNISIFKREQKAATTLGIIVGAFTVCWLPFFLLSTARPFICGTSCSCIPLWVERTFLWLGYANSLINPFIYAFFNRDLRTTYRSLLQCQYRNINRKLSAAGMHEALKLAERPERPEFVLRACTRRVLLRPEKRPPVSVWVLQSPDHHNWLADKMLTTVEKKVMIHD
# Chain of 5-hydroxytryptamine receptor 1D (P28221 whole entry): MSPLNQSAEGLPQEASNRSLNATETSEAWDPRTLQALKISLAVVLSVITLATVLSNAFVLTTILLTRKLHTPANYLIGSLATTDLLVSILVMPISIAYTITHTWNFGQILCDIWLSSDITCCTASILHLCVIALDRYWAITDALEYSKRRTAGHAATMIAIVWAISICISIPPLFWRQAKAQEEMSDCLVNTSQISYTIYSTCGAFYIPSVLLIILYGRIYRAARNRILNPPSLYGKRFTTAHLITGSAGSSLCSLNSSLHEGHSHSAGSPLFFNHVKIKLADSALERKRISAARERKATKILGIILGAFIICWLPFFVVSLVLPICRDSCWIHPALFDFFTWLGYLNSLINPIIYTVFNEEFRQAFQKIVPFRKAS
# Chain of 5-hydroxytryptamine receptor 6 (P50406 whole entry): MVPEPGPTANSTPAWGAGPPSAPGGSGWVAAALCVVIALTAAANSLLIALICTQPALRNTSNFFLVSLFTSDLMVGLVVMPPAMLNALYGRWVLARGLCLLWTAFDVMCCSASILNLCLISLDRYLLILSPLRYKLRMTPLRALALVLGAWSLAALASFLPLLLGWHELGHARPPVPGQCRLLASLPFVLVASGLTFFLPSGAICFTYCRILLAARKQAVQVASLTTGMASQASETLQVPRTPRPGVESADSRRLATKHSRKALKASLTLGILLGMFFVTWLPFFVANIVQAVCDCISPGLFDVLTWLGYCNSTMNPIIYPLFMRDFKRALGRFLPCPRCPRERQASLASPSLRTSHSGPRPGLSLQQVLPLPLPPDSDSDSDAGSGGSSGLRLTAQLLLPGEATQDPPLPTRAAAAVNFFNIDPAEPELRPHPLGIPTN
# Chain of 5-hydroxytryptamine receptor 2A (P28223 whole entry): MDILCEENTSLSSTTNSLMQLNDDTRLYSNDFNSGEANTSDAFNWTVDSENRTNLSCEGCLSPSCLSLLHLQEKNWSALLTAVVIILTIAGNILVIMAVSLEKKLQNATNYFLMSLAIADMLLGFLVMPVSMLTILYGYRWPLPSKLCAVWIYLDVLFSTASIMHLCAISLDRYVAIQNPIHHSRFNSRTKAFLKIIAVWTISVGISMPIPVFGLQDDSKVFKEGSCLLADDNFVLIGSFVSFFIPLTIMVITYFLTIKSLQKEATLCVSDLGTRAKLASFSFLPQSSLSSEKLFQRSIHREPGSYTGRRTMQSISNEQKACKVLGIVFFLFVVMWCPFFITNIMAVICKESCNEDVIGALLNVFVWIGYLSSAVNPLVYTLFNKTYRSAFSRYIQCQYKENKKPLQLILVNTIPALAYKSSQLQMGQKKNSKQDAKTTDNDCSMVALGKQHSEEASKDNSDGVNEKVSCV
# Chain of 5-hydroxytryptamine receptor 2B (P41595 whole entry): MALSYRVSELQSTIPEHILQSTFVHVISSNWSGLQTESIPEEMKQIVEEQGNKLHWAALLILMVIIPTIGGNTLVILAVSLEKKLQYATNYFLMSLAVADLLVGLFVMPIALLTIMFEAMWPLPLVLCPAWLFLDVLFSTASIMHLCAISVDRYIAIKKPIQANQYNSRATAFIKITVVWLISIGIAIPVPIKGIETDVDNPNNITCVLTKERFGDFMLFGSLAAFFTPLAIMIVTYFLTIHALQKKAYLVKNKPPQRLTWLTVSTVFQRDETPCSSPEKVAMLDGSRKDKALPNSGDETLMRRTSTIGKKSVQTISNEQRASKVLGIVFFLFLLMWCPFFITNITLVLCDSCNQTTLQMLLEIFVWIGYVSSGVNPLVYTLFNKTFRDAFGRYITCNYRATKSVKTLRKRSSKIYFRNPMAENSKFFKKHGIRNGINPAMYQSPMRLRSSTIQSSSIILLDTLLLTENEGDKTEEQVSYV
# Chain of 5-hydroxytryptamine receptor 1B (P28222 whole entry): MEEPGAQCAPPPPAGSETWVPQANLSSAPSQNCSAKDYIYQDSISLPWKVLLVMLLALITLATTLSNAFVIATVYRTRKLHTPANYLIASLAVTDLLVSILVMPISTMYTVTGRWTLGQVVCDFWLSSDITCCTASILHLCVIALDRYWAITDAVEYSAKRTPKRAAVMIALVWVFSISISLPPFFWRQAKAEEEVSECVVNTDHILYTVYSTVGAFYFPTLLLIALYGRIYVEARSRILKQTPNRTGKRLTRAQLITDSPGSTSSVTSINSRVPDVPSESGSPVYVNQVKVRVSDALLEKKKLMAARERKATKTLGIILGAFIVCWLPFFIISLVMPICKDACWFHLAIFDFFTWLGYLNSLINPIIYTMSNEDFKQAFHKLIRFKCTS
# Chain of 5-hydroxytryptamine receptor 5A (P47898 whole entry): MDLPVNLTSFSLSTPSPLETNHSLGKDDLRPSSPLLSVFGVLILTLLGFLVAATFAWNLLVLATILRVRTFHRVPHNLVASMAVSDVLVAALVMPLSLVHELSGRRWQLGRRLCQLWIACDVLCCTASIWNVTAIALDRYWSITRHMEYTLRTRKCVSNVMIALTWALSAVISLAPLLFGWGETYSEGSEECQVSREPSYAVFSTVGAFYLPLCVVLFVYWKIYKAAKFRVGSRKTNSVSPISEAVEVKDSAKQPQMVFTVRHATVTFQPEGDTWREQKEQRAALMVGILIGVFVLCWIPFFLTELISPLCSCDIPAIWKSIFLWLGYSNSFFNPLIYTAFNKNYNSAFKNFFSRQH
smiles,measurement,setting,value
COc1ccccc1N1CCN(CCCCCC(=O)n2c3ccccc3c3ccccc32)CC1.Cl,MRT,[1],2.81 h
same,Ki,[2],74 nM
same,Ki,[3],74 nM
same,Ki,[4],549 nM
same,Ki,[5],845 nM
same,Ki,[6],1280 nM
same,Ki,[7],1260 nM
same,Ki,[8],419 nM
same,Ki,[9],588 nM
same,inhibition,[10],18%
same,inhibition,[11],34%
same,inhibition,[12],31%
same,inhibition,[13],75.2%
same,Activity,[14],22.2%
same,"remaining at 0.5 h, 1 µM",[15],50.8%
same,AUC(0-inf),[16],1470 ng·h/mL
same,AUC(0-inf),[17],998 ng·h/mL
same,AUC(0-t),[18],1170 ng·h/mL
same,AUC(0-t),[19],561 ng·h/mL
same,half-life,[20],199 min
same,half-life,[21],397 min
same,Cmax,[22],160 ng/mL
same,Tmax,[23],3.57 h
same,clearance,[24],114 mL/min/kg
same,Vd,[25],33.5 L/kg
same,concentration at 2 h,[26],210 ng/mL
same,concentration at 2 h,[27],70 ng/mL
same,concentration at 2 h,[28],268 ng/mL
same,concentration at 2 h,[29],1530 ng/mL
same,Time,[30],118.9 s
same,Kp at 2 h,[31],1.23
same,bioavailability,[32],67.8%
same,Kp at 2 h,[33],25.5
